Assay results taken from patent US20240366779A1, “SELECTIVE DRUG RELEASE FROM INTERNALIZED CONJUGATES OF BIOLOGICALLY ACTIVE COMPOUNDS” (priority 2021, published 2024).
Numbered stars: 1 amine (or outer) side, 2 acyl side, 3 side chain; on linkers, the order of the positions; unused ones are H or OH. Square brackets hold non-standard residues; d marks the D form. Ends that are not written are not given here. Peptide text beside a SMILES is read from it. * marks the point of attachment. Dolaproine = CO[C@@H]([C@@H]1CCCN1)[C@@H](C)C(=O)O; Propanoyl(3-maleimido) = O=C1C=CC(=O)N1CCC(=O)*; Dil = CC[C@H](C)[C@H](NC)[C@@H](CC(=O)O)OC; Gla = N[C@@H](CC(C(=O)O)C(=O)O)C(=O)O; PABC = O=C(OCc1ccc(N[*:1])cc1)[*:2]; X1 = C[C@@H](N*)[C@@H](O)c1ccccc1; Met(O) = CS(=O)CC[C@H](N)C(=O)O; Cit = NC(=O)NCCC[C@H](N)C(=O)O; NMeV = CN[C@H](C(=O)O)C(C)C; Aib = CC(C)(N)C(=O)O

Legend:
HPAFII cells = experiment: In vitro cytotoxicity of Ag1 ADCs (CellTiter-Glo, 96 h); type: cell-based; details: Tables 3a and 3b, in words
Method: In vitro cytotoxicity. The cytotoxicity of a tripeptide-based Antibody Drug Conjugate was measured by a cell proliferation assay employing the protocol described in Promega Corp. Technical Bulletin TB288; and Mendoza et al., 2002, Cancer Res. 62:5485-5488), the methods of which are specifically incorporated by reference herein. Briefly, an aliquot of 40 μl of cell culture containing about 400 cells in medium is deposited in each well of a 384-well, opaque-walled plate. A 10 μL aliquot of free drug or Ligand-Drug Conjugate is added to the experimental wells and incubated for 96 h and are then equilibrated to room temperature for approximately 30 minutes whereupon a volume of CellTiter-Glo™ reagent equal to the volume of cell culture medium present in each well is added. The contents are mixed for 2 minutes on an orbital shaker to induce cell lysis and the plate is incubated at room temperature for 10 minutes to stabilize the luminescence signal for recordation.
The italicized values in Tables 3, 3a, and 3b indicate the percentage of cells remaining after 96 hr incubation at the maximum concentration of drug added. For convenience the numbering for the library members of Tables 2 and 2A are retained for the corresponding Drug linker compounds that are incorporated into the ADC of Tables 3, 3a, and 3b.

neutrophil elastase = biological target: T1, neutrophil elastase (Homo sapiens, UniProt P08246); experiment: Neutrophil elastase assay of 8-load ADCs (QToF MS); type: biochemical; details: 8-load ADC, 37 C, 3 h; FIG. 6A
T1 sequence (P08246 30-267): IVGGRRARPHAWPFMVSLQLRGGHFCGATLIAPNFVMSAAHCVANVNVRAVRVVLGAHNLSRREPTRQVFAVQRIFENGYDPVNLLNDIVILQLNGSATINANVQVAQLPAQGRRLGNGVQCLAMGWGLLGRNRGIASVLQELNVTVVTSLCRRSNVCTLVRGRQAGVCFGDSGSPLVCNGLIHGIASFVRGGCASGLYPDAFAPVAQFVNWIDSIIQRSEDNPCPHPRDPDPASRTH
Method: To a mixture of 8-load ADC (5 ug), buffer (100 mM tris, 75 mM NaCl, pH 7.5; final concentration), and neutrophil elastase (100 ng) was added water to 20 uL. The reaction was incubated at 37 C for 3 h and then immediately analyzed by a QToF mass spectrometer.

[1] = test system: neutrophils and reticulocytes (bone marrow); experiment: In vivo bone marrow toxicity of non-binding h00 conjugates (neutrophil and reticulocyte counts, tolerability); details: rat, in words
From the text: Toxicity Determinations. Each tripeptide-based Drug Linker compound was reacted with a reduced non-binding antibody to provide a non-binding control ADC and injected i.v. into female Sprague Dawley rats at various concentrations. Animals were euthanized on day 4 or 28 post dose.
Having shown that ADC efficacy has been at least retained on replacing the dipeptide with most of the selected tripeptide sequences, differences in in vivo cytotoxicity against normal bone marrow tissue was explored by replacing the antibody targeting the Ag1 antigen with a non-binding control (h00) antibody. Each of the resulting non-targeting conjugates were then administered at 10 mg/Kg to rats, whose blood were analyzed at day 5 post-administration for neutrophil and reticulocyte counts as a proxy for bone marrow toxicity compared to sham treated animals. […]
A subset of non-targeting conjugates were administered at higher doses to rats to determine the impact on bone marrow depletion. Blood from the doses rats were analyzed at day 8 and day 22 post-administration for neutrophil (FIG. 2C) and reticulocyte (FIG. 3C) counts as a proxy for bone marrow toxicity compared to sham treated animals. […]

[2] = test system: CD30-expressing ALCL and HL cell lines (DEL, Karpas, KMH2, L428, L540cy); experiment: In vitro cytotoxicity study of cAC10 ADCs (CellTiter-Glo, 96 hours); type: cell-based; details: FIG. 39A-E
Method: ALCL and HL cell lines (DEL, DELBVR8F9, Karpas, KMH2, L428, AND L540cy) were plated in 150 uL complete growth media in 96-well, clear-bottomed, black-walled tissue culture treated plates (Corning). Cell plates were placed at 37° C. and 5% CO2 overnight to allow cells to equilibrate. The ADCs were thawed, and 4×8-point serial dilutions were prepared in RPMI-1640+10% fetal bovine serum (FBS). Fifty uL of each dilution were then added to each cell plate in triplicate. Treated cells were incubated at 37° C. and 5% CO2 for 96 hours. Cell viability was assayed using CellTiter-Glo® Reagent (PROMEGA). Raw data were analyzed in Graphpad Prism (San Diego, CA) using a nonlinear, 4-parameter curve fit model [Y=Bottom+(Top−Bottom)/(1+10^((Log EC50−X)*HillSlope))].

[3] = test system: tumor tissue homogenates from HPAF-II, Ramos, SK-Mel-5 and SU-DHL-4 xenograft models; experiment: Fluorescence assay: proteolysis of tripeptide library by tumor tissue homogenate; type: biochemical, mouse; details: Table 1A; normalized fluorescence averaged across 4 tumor homogenates
Method: (§1) Fluorescence assay. To a 384 well plate was added a mixture of tumor or normal tissue homogenate and citrate buffer (100 mM, pH 4.5; 9 μL) followed by a fluorescently labelled library compound (1 μL; dissolved in 50% MeCN). The reaction was incubated at 37° C. and fluorescence (330 nm excitation, 450 nm emission) was detected several times over a 6-hr. period. The fluorescence fold change was determined by dividing the fluorescence value at each time point with the background fluorescence when no homogenate was added.
Tissue Homogenization. […]
The normalized fluorescence value for tumor homogenate proteolysis is an averaged value for tumor tissue homogenates derived from four mouse xenograft models.
That value was then normalized for each peptide in each homogenate by dividing it by the average value for that homogenate. […] The normalized tumor tissue values of Table 1 were then determined by averaging the normalized fluorescence value for each peptide across all 4 cancer homogenates that were tested. […] The normalized normal tissue values of Table 1 were similarly calculated using homogenized bone marrow. The Tumor/Normal ratios of Table 1A were determined by dividing the normalized tumor tissue values by the normalized normal tissue values.

[4] = test system: normal human bone marrow homogenate; experiment: Fluorescence assay: proteolysis of tripeptide library by normal tissue homogenate; type: biochemical; details: Table 1A, normalized fluorescence at final time point (275-315 min)
Method: as §1
Tissue Homogenization. Normal tissue or tumor tissue from mouse xenografts were suspended in buffer (50 mM Tris, 150 mM KCl, pH 7.0) and added to a tube containing Matrix D lysing beads (mpbio). The tissue was homogenized with a Precellys™ 24 homogenizer. The homogenized sample was centrifuged at 1000×g for 10 min and the resulting supernatant was collected then frozen at −80° C. until further use.
The normalized normal tissue fluorescence values are from proteolysis by normal human bone marrow.
That value was then normalized for each peptide in each homogenate by dividing it by the average value for that homogenate. […] The normalized normal tissue values of Table 1 were similarly calculated using homogenized bone marrow.

Row | Compound | cytotoxicity relative to comparator dipeptide-based ADC (1) (HPAFII cells) | efficacy relative to comparator dipeptide-based ADC (1) (HPAFII cells) | also measured
1 | CC[C@H](C)[C@@H]([C@@H](CC(=O)N1CCC[C@H]1[C@H](OC)[C@@H](C)C(=O)N[C@H](C)[C@@H](O)c1ccccc1)OC)N(C)C(=O)[C@@H](NC(=O)[C@H](C(C)C)N(C)C(=O)OCc1ccc(NC(=O)[C@H](CCCNC(N)=O)NC(=O)[C@H](C)NC(=O)[C@@H](CC(C)C)NC(=O)CCN2C(=O)C=CC2=O)cc1)C(C)C [Compound 8] ({Propanoyl(3-maleimido)}-[dL]A[Cit][PABC][NMeV]V[Dil][Dolaproine]-X1) | less cytotoxic | similarly efficacious | –
2 | CC[C@H](C)[C@@H]([C@@H](CC(=O)N1CCC[C@H]1[C@H](OC)[C@@H](C)C(=O)N[C@H](C)[C@@H](O)c1ccccc1)OC)N(C)C(=O)[C@@H](NC(=O)[C@H](C(C)C)N(C)C(=O)OCc1ccc(NC(=O)[C@H](CCC(=O)O)NC(=O)[C@H](CO)NC(=O)[C@H](Cc2ccccc2)NC(=O)CCN2C(=O)C=CC2=O)cc1)C(C)C [Compound 30] ({Propanoyl(3-maleimido)}-FSE[PABC][NMeV]V[Dil][Dolaproine]-X1) | less cytotoxic | similarly efficacious | –
3 | CC[C@H](C)[C@@H]([C@@H](CC(=O)N1CCC[C@H]1[C@H](OC)[C@@H](C)C(=O)N[C@H](C)[C@@H](O)c1ccccc1)OC)N(C)C(=O)[C@@H](NC(=O)[C@H](C(C)C)N(C)C(=O)OCc1ccc(NC(=O)[C@H](CC(=O)O)NC(=O)[C@H](C)NC(=O)[C@@H](CC(C)C)NC(=O)CCN2C(=O)C=CC2=O)cc1)C(C)C [Compound 24] ({Propanoyl(3-maleimido)}-[dL]AD[PABC][NMeV]V[Dil][Dolaproine]-X1) | less cytotoxic | similarly efficacious | –
4 | CC[C@H](C)[C@@H]([C@@H](CC(=O)N1CCC[C@H]1[C@H](OC)[C@@H](C)C(=O)N[C@H](C)[C@@H](O)c1ccccc1)OC)N(C)C(=O)[C@@H](NC(=O)[C@H](C(C)C)N(C)C(=O)OCc1ccc(NC(=O)[C@H](CCC(=O)O)NC(=O)[C@H](C)NC(=O)[C@@H](CC(C)C)NC(=O)CCN2C(=O)C=CC2=O)cc1)C(C)C [compound 5, mp-dLAE-PABC-MMAE] ({Propanoyl(3-maleimido)}-[dL]AE[PABC][NMeV]V[Dil][Dolaproine]-X1) | – | – | percentage of drug cleaved from the heavy chain by neutrophil elastase (neutrophil elastase): lower than that found for non-targeted ADC 37
5 | CC[C@H](C)[C@@H]([C@@H](CC(=O)N1CCC[C@H]1[C@H](OC)[C@@H](C)C(=O)N[C@H](C)[C@@H](O)c1ccccc1)OC)N(C)C(=O)[C@@H](NC(=O)[C@H](C(C)C)N(C)C(=O)OCc1ccc(NC(=O)[C@H](CCC(=O)O)NC(=O)C(C)(C)NC(=O)[C@@H](CC(C)C)NC(=O)CCN2C(=O)C=CC2=O)cc1)C(C)C [compound 38] ({Propanoyl(3-maleimido)}-[dL][Aib]E[PABC][NMeV]V[Dil][Dolaproine]-X1) | less cytotoxic | less cytotoxic and efficacious | toxicity to bone marrow [1]: less toxic to rat bone marrow
6 | CC[C@H](C)[C@@H]([C@@H](CC(=O)N1CCC[C@H]1[C@H](OC)[C@@H](C)C(=O)N[C@H](C)[C@@H](O)c1ccccc1)OC)N(C)C(=O)[C@@H](NC(=O)[C@@H](NC)C(C)C)C(C)C [SGN-1010, MMAE] (H-[NMeV]V[Dil][Dolaproine]-X1) | – | – | cytotoxic activity (cell viability) [2]: all cell lines are sensitive
7 | CC[C@H](C)[C@@H]([C@@H](CC(=O)N1CCC[C@H]1[C@H](OC)[C@@H](C)C(=O)N[C@H](C)[C@@H](O)c1ccccc1)OC)N(C)C(=O)[C@@H](NC(=O)[C@H](C(C)C)N(C)C(=O)OCc1ccc(NC(=O)[C@H](CC(C(=O)O)C(=O)O)NC(=O)[C@H](C)NC(=O)[C@@H](CC(C)C)NC(=O)CCN2C(=O)C=CC2=O)cc1)C(C)C [Compound 26] ({Propanoyl(3-maleimido)}-[dL]A[Gla][PABC][NMeV]V[Dil][Dolaproine]-X1) | less cytotoxic | similarly efficacious | –
8 | CC[C@H](C)[C@@H]([C@@H](CC(=O)N1CCC[C@H]1[C@H](OC)[C@@H](C)C(=O)N[C@H](C)[C@@H](O)c1ccccc1)OC)N(C)C(=O)[C@@H](NC(=O)[C@H](C(C)C)N(C)C(=O)OCc1ccc(NC(=O)[C@H](CCC(=O)O)NC(=O)[C@H](C)NC(=O)[C@@H](C)NC(=O)CCN2C(=O)C=CC2=O)cc1)C(C)C [Compound 22] ({Propanoyl(3-maleimido)}-[dA]AE[PABC][NMeV]V[Dil][Dolaproine]-X1) | less cytotoxic | similarly efficacious | –
9 | [dL]-Leu-[Met(O)] [DLeu-Leu-Met(O)] | – | – | Normalized Tumor Tissue [3]: 1.70; Normalized Normal Tissue [4]: 0.66
